Consider 6 compounds from patent US20230393140A1, “BINDING ASSAYS INVOLVING A PLURALITY OF SYNTHETIC COMPOUNDS, TARGETS, AND COUNTER TARGETS” (SRI International, priority 2020, published 2023).

Each structure is given as a SMILES string. Numbered stars: 1 amine (or outer) side, 2 acyl side, 3 side chain; on linkers, the order of the positions; unused ones are H or OH. Square brackets hold non-standard residues; d marks the D form. Peptide text beside a SMILES is read from it. * marks the point of attachment. 5FAM = O=C1OC2(c3ccc(O)cc3Oc3cc(O)ccc32)c2ccc(C(=O)*)cc21; NHCH2C6H4(4-CH2CONH2) = NC(=O)Cc1ccc(CN*)cc1; X1 = O=C(Cc1ccc(CN[*:1])cc1)[*:2]

Sequence of TNFα (P01375 77-233 limits assumed): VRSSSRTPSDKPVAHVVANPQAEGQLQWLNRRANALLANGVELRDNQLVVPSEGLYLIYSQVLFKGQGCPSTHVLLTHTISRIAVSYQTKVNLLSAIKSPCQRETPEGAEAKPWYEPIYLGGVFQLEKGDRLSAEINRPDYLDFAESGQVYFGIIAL

In the test the target is TNFα (Homo sapiens, UniProt P01375). Kind of test: MST binding affinity of resynthesized NNP hits to TNFα. On the set-up: purchased R&D Systems, Inc. 210-TA/CF. To be noted: read-out: KD (nM) [95% conf. int], NNP2 library hit, target TNFα, one-site binding model. The protocol:
Hit binding affinity to various targets were determined using Microscale Thermophoresis (MST). MST experiments were performed on a Monolith NT.115pico (NanoTemper Technologies GmbH, Munich, Germany). Measurements were performed at room temperature, in triplicate with incubation periods of 15, 30 and 45 minutes. […] Targets were labeled using Nanotemper Monolith 2nd Generation Protein Labeling Kits. RED-MALEIMIDE (Maleimide-647-dye) labeling kit was used for K-Ras and RED-NHS (NHS-647-dye) labeling kit was used for IL-6, IL-6R, TNFα and ASGPR. The buffer for the ASGPR contained 20 mM HEPES pH 7.4, 150 mM NaCl, 10 mM MgCl2, 2 mM CaCl2, 0.05% Pluronic F-127, and 1 mM DTT; for IL-6 contained 20 mM HEPES pH 7.4, 150 mM KCl, 10 mM MgCl2, and 0.1% Pluronic F-127; for the soluble IL-6 receptor 20 mM HEPES pH 7.4, 150 mM NaCl, 10 mM MgCl2, and 0.05% Tween-20; for K-Ras 20 mM HEPES pH 7.4, 150 mM NaCl, 10 mM MgCl2, 0.05% Tween-20 and 1 mM DTT; for TNFα 10 mM HEPES pH 7.4, 150 mM NaCl, 10 mM MgCl2, 0.05% Polysorbate-20. Triplicate data was analyzed using MO.AffinityAnalysis software (NanoTemper Technologies GmbH).
As for `CC(C)C[C@H](NC(=O)[C@@H](CCCNC(=N)N)NC(=O)[C@@H](C)NC(=O)Cc1ccc(CNC(=O)[C@H](Cc2ccccc2)NC(=O)[C@@H](CCCNC(=N)N)NC(=O)[C@@H](CC(N)=O)NC(=O)Cc2ccc(CNC(=O)[C@H](Cc3ccccc3)NC(=O)[C@@H](CCCCN)NC(=O)[C@@H](C)NC(=O)Cc3ccc(CNC(=O)[C@H](C)NC(=O)[C@@H](CCCNC(=N)N)NC(=O)[C@@H](Cc4ccccc4)NC(=O)Cc4ccc(CNC(=O)[C@H](CC(C)C)NC(=O)[C@@H](CCCCN)NC(=O)[C@@H](CC(C)C)NC(=O)Cc5ccc(CNC(=O)[C@H](CC(C)C)NC(=O)[C@@H](CCCNC(=N)N)NC(=O)[C@@H](CC(C)C)NC(=O)Cc6ccc(CNC(=O)[C@H](CC(C)C)NC(=O)[C@@H](CC(C)C)NC(=O)[C@@H](Cc7ccc(O)cc7)NC(=O)c7ccc8c(c7)C(=O)OC87c8ccc(O)cc8Oc8cc(O)ccc87)cc6)cc5)cc4)cc3)cc2)cc1)C(=O)NCc1ccc(CC(=O)N[C@H](Cc2c[nH]c3ccccc23)C(=O)N[C@H](CCCCN)C(=O)N[C@@H](CC(C)C)C(=O)NCc2ccc(CC(=O)N3CCC[C@@H]3C(=O)N[C@H](C)C(=O)N[C@@H](C)C(=O)NCc3ccc(CC(N)=O)cc3)cc2)cc1` [TNF-31-14] (5FAM-[dY][dL]L[X1][dL][dR]L[X1][dL][dK]L[X1][dF][dR]A[X1][dA][dK]F[X1][dN][dR]F[X1][dA][dR]L[X1][dW][dK]L[X1][dP][dA]A-{NHCH2C6H4(4-CH2CONH2)}), the dissociation constant Kd (usually the constant that tells how readily two partners part at equilibrium) stood at 35 nM.

Take `CC(C)C[C@H](NC(=O)[C@@H](CCCNC(=N)N)NC(=O)[C@@H](CCC(=O)O)NC(=O)Cc1ccc(CNC(=O)[C@H](C)NC(=O)[C@@H](CCCCN)NC(=O)[C@@H](Cc2ccc(O)cc2)NC(=O)Cc2ccc(CNC(=O)[C@H](C)NC(=O)[C@@H](CCCNC(=N)N)NC(=O)[C@@H](Cc3ccccc3)NC(=O)Cc3ccc(CNC(=O)[C@H](CC(C)C)NC(=O)[C@H](NC(=O)[C@@H](CCCNC(=N)N)NC(=O)Cc4ccc(CNC(=O)[C@H](CC(C)C)NC(=O)[C@@H](CCCNC(=N)N)NC(=O)[C@@H](CC(C)C)NC(=O)Cc5ccc(CNC(=O)[C@H](CC(C)C)NC(=O)[C@H](NC(=O)[C@@H](CCCCN)NC(=O)c6ccc7c(c6)C(=O)OC76c7ccc(O)cc7Oc7cc(O)ccc76)C(C)C)cc5)cc4)C(C)C)cc3)cc2)cc1)C(=O)NCc1ccc(CC(=O)N2CCC[C@@H]2C(=O)N[C@@H](C(=O)NCC(=O)NCc2ccc(CC(=O)N[C@H](CCCCN)C(=O)N[C@H](Cc3ccccc3)C(=O)N[C@@H](Cc3ccccc3)C(=O)NCc3ccc(CC(=O)N[C@H](Cc4c[nH]cn4)C(=O)N[C@H](CCC(=O)O)C(=O)N[C@H](C(=O)NCc4ccc(CC(N)=O)cc4)C(C)C)cc3)cc2)C(C)C)cc1` [TNF-31-15] (5FAM-[dK][dV]L[X1][dL][dR]L[X1][dR][dV]L[X1][dF][dR]A[X1][dY][dK]A[X1][dE][dR]L[X1][dP][dV]G[X1][dK][dF]F[X1][dH][dE]V-{NHCH2C6H4(4-CH2CONH2)}): the Kd amounted to 23 nM.

Regarding `CC(C)C[C@H](NC(=O)[C@@H](CCC(=O)O)NC(=O)[C@H]1CCCN1C(=O)Cc1ccc(CNC(=O)[C@H](CC(C)C)NC(=O)[C@@H](CCCCN)NC(=O)[C@@H](Cc2ccccc2)NC(=O)Cc2ccc(CNC(=O)[C@@H](NC(=O)[C@@H](CCC(=O)O)NC(=O)[C@@H](Cc3ccccc3)NC(=O)Cc3ccc(CNC(=O)[C@H](CC(C)C)NC(=O)[C@@H](CCCNC(=N)N)NC(=O)[C@@H](CC(C)C)NC(=O)Cc4ccc(CNC(=O)[C@H](CC(C)C)NC(=O)[C@H](NC(=O)[C@@H](CCCCN)NC(=O)c5ccc6c(c5)C(=O)OC65c6ccc(O)cc6Oc6cc(O)ccc65)C(C)C)cc4)cc3)C(C)C)cc2)cc1)C(=O)NCc1ccc(CC(=O)N[C@H](Cc2ccccc2)C(=O)N[C@@H](C(=O)N[C@@H](C)C(=O)NCc2ccc(CC(=O)N[C@H](Cc3c[nH]cn3)C(=O)N[C@H](CCC(=O)O)C(=O)N[C@@H](CC(C)C)C(=O)NCc3ccc(CC(=O)N[C@H](CCC(=O)O)C(=O)N[C@H](Cc4ccc(O)cc4)C(=O)N[C@@H](Cc4ccccc4)C(=O)NCc4ccc(CC(=O)N[C@@H](C(=O)N[C@H](CO)C(=O)N[C@H](C(=O)NCc5ccc(CC(N)=O)cc5)C(C)C)[C@H](C)O)cc4)cc3)cc2)[C@H](C)O)cc1` [TNF-31-16] (5FAM-[dK][dV]L[X1][dL][dR]L[X1][dF][dE]V[X1][dF][dK]L[X1][dP][dE]L[X1][dF][dT]A[X1][dH][dE]L[X1][dE][dY]F[X1][dT][dS]V-{NHCH2C6H4(4-CH2CONH2)}), the Kd stood at 180 nM.

As for `CC(C)C[C@H](NC(=O)[C@@H](CCCNC(=N)N)NC(=O)[C@@H](CC(C)C)NC(=O)Cc1ccc(CNC(=O)[C@H](CC(C)C)NC(=O)[C@H](NC(=O)[C@@H](CCCCN)NC(=O)c2ccc3c(c2)C(=O)OC32c3ccc(O)cc3Oc3cc(O)ccc32)C(C)C)cc1)C(=O)NCc1ccc(CC(=O)N[C@H](CCCNC(=N)N)C(=O)N[C@@H](C(=O)N[C@@H](CC(C)C)C(=O)NCc2ccc(CC(=O)N[C@H](Cc3ccccc3)C(=O)N[C@H](CCCNC(=N)N)C(=O)N[C@@H](C)C(=O)NCc3ccc(CC(=O)N[C@H](C)C(=O)N[C@H](CCCCN)C(=O)N[C@@H](Cc4ccccc4)C(=O)NCc4ccc(CC(=O)N[C@H](CC(N)=O)C(=O)N[C@H](CCCNC(=N)N)C(=O)N[C@@H](Cc5ccccc5)C(=O)NCc5ccc(CC(=O)N6CCC[C@@H]6C(=O)N[C@@H](C(=O)NCC(=O)NCc6ccc(CC(=O)N[C@H](CCC(=O)O)C(=O)N[C@H](CCCNC(=N)N)C(=O)N[C@H](C(=O)NCc7ccc(CC(=O)N[C@H](Cc8ccc(O)cc8)C(=O)N[C@H](CCCNC(=N)N)C(=O)N[C@@H](Cc8ccccc8)C(=O)NCc8ccc(CC(N)=O)cc8)cc7)C(C)C)cc6)C(C)C)cc5)cc4)cc3)cc2)C(C)C)cc1` [TNF-39-1] (5FAM-[dK][dV]L[X1][dL][dR]L[X1][dR][dV]L[X1][dF][dR]A[X1][dA][dK]F[X1][dN][dR]F[X1][dP][dV]G[X1][dE][dR]V[X1][dY][dR]F-{NHCH2C6H4(4-CH2CONH2)}), the equilibrium dissociation constant (Kd) is 116 nM.

As to `CC(C)C[C@H](NC(=O)[C@@H](CCCNC(=N)N)NC(=O)CNC(=O)Cc1ccc(CNC(=O)[C@H](CC(C)C)NC(=O)[C@@H](CC(C)C)NC(=O)[C@@H](Cc2ccc(O)cc2)NC(=O)c2ccc3c(c2)C(=O)OC32c3ccc(O)cc3Oc3cc(O)ccc32)cc1)C(=O)NCc1ccc(CC(=O)N[C@H](Cc2ccccc2)C(=O)N[C@H](CCC(=O)O)C(=O)N[C@H](C(=O)NCc2ccc(CC(=O)N[C@H](Cc3c[nH]c4ccccc34)C(=O)N[C@H](CCCNC(=N)N)C(=O)N[C@@H](CC(C)C)C(=O)NCc3ccc(CC(=O)N[C@H](Cc4c[nH]c5ccccc45)C(=O)N[C@H](CCCNC(=N)N)C(=O)N[C@H](C(=O)NCc4ccc(CC(=O)N[C@H](CCCNC(=N)N)C(=O)N[C@H](Cc5ccc(O)cc5)C(=O)N[C@@H](CC(C)C)C(=O)NCc5ccc(CC(=O)N6CCC[C@@H]6C(=O)NCC(=O)N[C@H](C(=O)NCc6ccc(CC(=O)N[C@H](Cc7c[nH]cn7)C(=O)N[C@H](CO)C(=O)N[C@@H](CC(C)C)C(=O)NCc7ccc(CC(=O)N[C@H](Cc8ccccc8)C(=O)N[C@H](CCCCN)C(=O)NCC(=O)NCc8ccc(CC(N)=O)cc8)cc7)cc6)C(C)C)cc5)cc4)C(C)C)cc3)cc2)C(C)C)cc1` [TNF-39-2] (5FAM-[dY][dL]L[X1]G[dR]L[X1][dF][dE]V[X1][dW][dR]L[X1][dW][dR]V[X1][dR][dY]L[X1][dP]GV[X1][dH][dS]L[X1][dF][dK]G-{NHCH2C6H4(4-CH2CONH2)}), the dissociation constant (Kd) was 200 nM.

Take `CC(C)C[C@H](NC(=O)[C@@H](CCCCN)NC(=O)[C@@H](Cc1c[nH]c2ccccc12)NC(=O)Cc1ccc(CNC(=O)[C@@H](NC(=O)CNC(=O)[C@H]2CCCN2C(=O)Cc2ccc(CNC(=O)[C@H](CC(C)C)NC(=O)[C@@H](Cc3ccc(O)cc3)NC(=O)[C@@H](CCCNC(=N)N)NC(=O)Cc3ccc(CNC(=O)[C@H](Cc4ccccc4)NC(=O)[C@@H](CCCCN)NC(=O)[C@@H](C)NC(=O)Cc4ccc(CNC(=O)[C@H](C)NC(=O)[C@@H](CCCNC(=N)N)NC(=O)[C@@H](Cc5ccccc5)NC(=O)Cc5ccc(CNC(=O)[C@@H](NC(=O)[C@@H](CCC(=O)O)NC(=O)[C@@H](Cc6ccccc6)NC(=O)Cc6ccc(CNC(=O)[C@H](CC(C)C)NC(=O)[C@@H](CCCNC(=N)N)NC(=O)[C@@H](CC(C)C)NC(=O)Cc7ccc(CNC(=O)[C@H](Cc8ccccc8)NC(=O)[C@@H](CC(C)C)NC(=O)[C@H](NC(=O)c8ccc9c(c8)C(=O)OC98c9ccc(O)cc9Oc9cc(O)ccc98)[C@H](C)O)cc7)cc6)C(C)C)cc5)cc4)cc3)cc2)C(C)C)cc1)C(=O)NCc1ccc(CC(=O)N[C@H](Cc2ccc(O)cc2)C(=O)N[C@H](CCCNC(=N)N)C(=O)N[C@@H](Cc2ccccc2)C(=O)NCc2ccc(CC(N)=O)cc2)cc1` [TNF-39-3] (5FAM-[dT][dL]F[X1][dL][dR]L[X1][dF][dE]V[X1][dF][dR]A[X1][dA][dK]F[X1][dR][dY]L[X1][dP]GV[X1][dW][dK]L[X1][dY][dR]F-{NHCH2C6H4(4-CH2CONH2)}): the Kd was 130 nM.
